In ChEMBL document CHEMBL1201862, “PubChem BioAssay data set” (2004):
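Compound exposure: 48 hours, 5 concentrations, 96-well plates. GI50 marks 50% less growth.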 Activity calls are given as the source filed them. No stated cut-off is given here; in the data, active = GI50 up to about 1.1 µM and inactive = higher.

Tests used:
Assay in all cases: NCI-60 cell line screen, 48 h
786-0 = test system: 786-0
BT-549 = test system: BT-549
EKVX = test system: EKVX
HT-29 = test system: HT-29
IGROV-1 = test system: IGROV-1
M14 = test system: M14
MCF7 = test system: MCF7
MOLT-4 = test system: MOLT-4
NCI-H522 = test system: NCI-H522
OVCAR-4 = test system: OVCAR-4
OVCAR-8 = test system: OVCAR-8
RXF 393 = test system: RXF 393
SF-295 = test system: SF-295
SF-539 = test system: SF-539
SK-MEL-2 = test system: SK-MEL-2
SK-MEL-5 = test system: SK-MEL-5
SNB-19 = test system: SNB-19
SR = test system: SR
TK-10 = test system: TK-10
UACC-257 = test system: UACC-257

Compound | GI50 (786-0) | GI50 (BT-549) | GI50 (EKVX) | GI50 (HT-29) | GI50 (IGROV-1) | GI50 (M14) | GI50 (MCF7) | GI50 (MOLT-4) | GI50 (NCI-H522) | GI50 (OVCAR-4) | GI50 (OVCAR-8) | GI50 (RXF 393) | GI50 (SF-295) | GI50 (SF-539) | GI50 (SK-MEL-2) | GI50 (SK-MEL-5) | GI50 (SNB-19) | GI50 (SR) | GI50 (TK-10) | GI50 (UACC-257)
c1ccc2cc(CN3CCC(C4CCN(Cc5ccc6ccccc6c5)CC4)CC3)ccc2c1 | 2.45 µM (inactive) | 10.3 µM (inactive) | 8.24 µM (inactive) | 1.52 µM (inactive) | 6.4 µM (inactive) | 1.91 µM (inactive) | 2.06 µM (inactive) | 3.41 µM (inactive) | 1.89 µM (inactive) | 6.21 µM (inactive) | 3.92 µM (inactive) | 2.74 µM (inactive) | 1.9 µM (inactive) | 1.8 µM (inactive) | 2.18 µM (inactive) | 2.06 µM (inactive) | 11.5 µM (inactive) | 3.24 µM (inactive) | 3.82 µM (inactive) | 1.98 µM (inactive)
COc1cccc(Nc2nc(N)nc(N)c2N=O)c1 | 19 µM (inactive) | 28 µM (inactive) | 19.4 µM (inactive) | 21.8 µM (inactive) | 2.38 µM (inactive) | 30.8 µM (inactive) | 3.8 µM (inactive) | 7.24 µM (inactive) | 8.65 µM (inactive) | 31.8 µM (inactive) | 16.1 µM (inactive) | 28.6 µM (inactive) | 27 µM (inactive) | 15.3 µM (inactive) | 31 µM (inactive) | 18.7 µM (inactive) | 38.6 µM (inactive) | 18.5 µM (inactive) | 19.8 µM (inactive) | 21.3 µM (inactive)
COc1cc2c(cc1OCCCCCN1C(=O)c3cccc4cccc(c34)C1=O)N=C[C@@H]1CCCN1C2=O | 0.249 µM (active) | 0.244 µM (active) | 0.492 µM (active) | 0.286 µM (active) | 0.0552 µM (active) | 0.24 µM (active) | 0.181 µM (active) | 0.0743 µM (active) | 0.0336 µM (active) | 0.248 µM (active) | 0.281 µM (active) | 0.0647 µM (active) | 0.386 µM (active) | 0.0646 µM (active) | 0.223 µM (active) | 0.257 µM (active) | 0.327 µM (active) | < 0.01 µM (active) | 0.129 µM (active) | 0.323 µM (active)
COc1ccc(/C=C2\N=C(c3ccccc3)N(NC3=NC(=O)CC(=O)N3)C2=O)cc1 | > 100 µM (inactive) | > 100 µM (inactive) |  | > 100 µM (inactive) | > 100 µM (inactive) | > 100 µM (inactive) | 20.4 µM (inactive) | > 100 µM (inactive) | > 100 µM (inactive) | > 100 µM (inactive) | > 100 µM (inactive) | > 100 µM (inactive) |  | > 100 µM (inactive) | > 100 µM (inactive) | > 100 µM (inactive) | > 100 µM (inactive) | > 100 µM (inactive) | > 100 µM (inactive) | > 100 µM (inactive)
COCc1nc2c(OC)c(-c3nc4ccc(N5CCN(C)CC5)cc4[nH]3)cc(OC)c2[nH]1 | 40.1 µM (inactive) | > 100 µM (inactive) | 99.8 µM (inactive) | 31.5 µM (inactive) | 97.9 µM (inactive) | 17.4 µM (inactive) | 35.6 µM (inactive) | 41.1 µM (inactive) | 31.1 µM (inactive) | 59.2 µM (inactive) | 60.7 µM (inactive) | 14.3 µM (inactive) | 21.6 µM (inactive) | 20 µM (inactive) | 27.9 µM (inactive) | 22.2 µM (inactive) | 48.8 µM (inactive) | 19.7 µM (inactive) | 84.9 µM (inactive) | 17.7 µM (inactive)
CSc1n[nH]c2[nH]nc(C)c12 | > 100 µM (inactive) | > 100 µM (inactive) | > 100 µM (inactive) | > 100 µM (inactive) | > 100 µM (inactive) | > 100 µM (inactive) | > 100 µM (inactive) | 8.53 µM (inactive) | > 100 µM (inactive) | > 100 µM (inactive) | > 100 µM (inactive) | > 100 µM (inactive) | > 100 µM (inactive) | > 100 µM (inactive) | > 100 µM (inactive) | > 100 µM (inactive) | > 100 µM (inactive) | 5.22 µM (inactive) | > 100 µM (inactive) | > 100 µM (inactive)
O=C(/C=C1/Nc2ccc([N+](=O)[O-])cc2N/C1=C/C(=O)c1ccc(Cl)cc1)c1ccc(Cl)cc1 | > 100 µM (inactive) | > 100 µM (inactive) | > 100 µM (inactive) | > 100 µM (inactive) | > 100 µM (inactive) | > 100 µM (inactive) | 49.5 µM (inactive) | > 100 µM (inactive) | 4.41 µM (inactive) | > 100 µM (inactive) | 54.8 µM (inactive) | 66.5 µM (inactive) | 91 µM (inactive) | > 100 µM (inactive) | 13.6 µM (inactive) | 33.3 µM (inactive) | > 100 µM (inactive) | > 100 µM (inactive) | > 100 µM (inactive) | > 100 µM (inactive)
CCCCCCCCCCCCCCCCNc1nc(=O)n(C2OC(C)C(O)C2O)cc1F (configuration not stated) | 19.9 µM (inactive) | 19.7 µM (inactive) | 18.4 µM (inactive) | 17.2 µM (inactive) | 17.6 µM (inactive) | 17.2 µM (inactive) | 17 µM (inactive) | 20.2 µM (inactive) | 18.7 µM (inactive) | 22.1 µM (inactive) | 21.8 µM (inactive) | 20.7 µM (inactive) | 20.8 µM (inactive) | 18.2 µM (inactive) | 18.9 µM (inactive) | 18.5 µM (inactive) | 18.8 µM (inactive) | 23.9 µM (inactive) | 16.8 µM (inactive) | 20.5 µM (inactive)
C/C(=N\C1CCCCC1)c1ccccc1O | > 100 µM (inactive) | > 100 µM (inactive) | > 100 µM (inactive) | > 100 µM (inactive) | > 100 µM (inactive) | > 100 µM (inactive) | > 100 µM (inactive) | > 100 µM (inactive) | 34.2 µM (inactive) | > 100 µM (inactive) | > 100 µM (inactive) | > 100 µM (inactive) | > 100 µM (inactive) | > 100 µM (inactive) | > 100 µM (inactive) | > 100 µM (inactive) | > 100 µM (inactive) | > 100 µM (inactive) | > 100 µM (inactive) | > 100 µM (inactive)
N#Cc1c(C#N)c(-c2ccccc2)n(-c2ccccc2)c1N | 82.6 µM (inactive) | 48.4 µM (inactive) | 73.8 µM (inactive) | > 100 µM (inactive) | 88.5 µM (inactive) | > 100 µM (inactive) | > 100 µM (inactive) | 60.3 µM (inactive) | 41.9 µM (inactive) | 56.2 µM (inactive) | > 100 µM (inactive) | 41.6 µM (inactive) | 15.3 µM (inactive) | 20.2 µM (inactive) | 99.1 µM (inactive) | 18.9 µM (inactive) | 30.4 µM (inactive) | 73.8 µM (inactive) | > 100 µM (inactive) | > 100 µM (inactive)
CCC1CC(C)C(O)/C=C/C=C/CC(C)OC(=O)CC(O)C(OC)C1OC1OC(C)CC(O)(C(C)=O)C1O (configuration not stated) | > 100 µM (inactive) | 40.6 µM (inactive) | 57.7 µM (inactive) | 59.4 µM (inactive) | > 100 µM (inactive) | 78.5 µM (inactive) | 40.3 µM (inactive) | 21.7 µM (inactive) | 13.3 µM (inactive) | 8.47 µM (inactive) | > 100 µM (inactive) | 44.7 µM (inactive) | > 100 µM (inactive) | 78.9 µM (inactive) | 39.1 µM (inactive) | 69 µM (inactive) | 19.3 µM (inactive) | 14.1 µM (inactive) | 60.8 µM (inactive) | 37.9 µM (inactive)
CCOC(=O)C1=C(C(=O)OCC)SC2(S1)C(C(=O)OCC)=C(C(=O)OCC)Sc1c2ssc1=O | 0.811 µM (active) | 1.94 µM (inactive) | 2.34 µM (inactive) | 1.76 µM (inactive) | 0.764 µM (active) | 2.04 µM (inactive) | 1.74 µM (inactive) | 0.226 µM (active) | 1.36 µM (inactive) | 1.27 µM (inactive) | 1.6 µM (inactive) | 1.03 µM (active) | 15 µM (inactive) | 0.845 µM (active) | 2.17 µM (inactive) | 2.03 µM (inactive) | 3.84 µM (inactive) | < 0.01 µM (active) | 1.73 µM (inactive) | 1.6 µM (inactive)
COc1cc(CC2C(=O)OCC2Cc2ccc(OC)c(OC)c2)ccc1O (configuration not stated) | > 100 µM (inactive) | > 55.2 µM (inactive) | > 27.8 µM (inactive) | > 100 µM (inactive) | > 75.3 µM (inactive) | > 100 µM (inactive) | > 100 µM (inactive) | 4.76 µM (inactive) | > 100 µM (inactive) | > 100 µM (inactive) | > 100 µM (inactive) | > 100 µM (inactive) | 8.85 µM (inactive) | > 100 µM (inactive) | > 100 µM (inactive) | 4.42 µM (inactive) | > 100 µM (inactive) | > 100 µM (inactive) | > 100 µM (inactive) | > 50.6 µM (inactive)
O=c1c2nc[nH]c2n(-c2ccccc2)c(=S)n1-c1ccccc1 | > 100 µM (inactive) | > 100 µM (inactive) | > 100 µM (inactive) | > 100 µM (inactive) | > 100 µM (inactive) | > 100 µM (inactive) | > 100 µM (inactive) | > 100 µM (inactive) | > 100 µM (inactive) | > 100 µM (inactive) | > 100 µM (inactive) | > 100 µM (inactive) | > 100 µM (inactive) | > 100 µM (inactive) | > 100 µM (inactive) | > 100 µM (inactive) |  | > 100 µM (inactive) | > 100 µM (inactive) | > 100 µM (inactive)
